Reference: US8685925B2, “Method and compositions for treating stroke with fever” (Nono Inc., priority 2006, dated 2014)
Read-outs that look alike come from different tables or passages of the source. No end group written: not given here.

Legend:
PSD-95 = PSD-95 (Homo sapiens, UniProt P78352); details: Kornau, 1995; Aarts, 2002; cited from earlier work
Sprague-Dawley rats [1] = assay type: in vivo, rat; details: pial vessel occlusion study
Description: (§1) The peptides were prepared daily from lyophilized powder by dissolving them in normal saline to the final desired concentration. They were administered intravenously via a slow (4-5 min) injection by individuals blinded to the treatment group.
(§2) Experiments were performed in male adult Sprague-Dawley rats weighing 250-300 g (Charles River Laboratory, Canada). All procedures conformed to guidelines established by the Canadian Council on Animal Care and with the approval of the University Health Network animal care committee. All animals were housed in groups of 1-2 animals in cages with free access to food and water and in rooms having an ambient temperature of 20±1° C. and 12:12 hr light/dark cycle.
Each animal was weighed and then anesthesia was induced. For the permanent pial vessel occlusion model, rats were anesthetized with ketamine (100 mg/kg), acepromazine (2 mg/kg), and xylazine (50 mg/kg), supplemented with one third the initial dose as required. For the two permanent middle cerebral artery occlusion (pMCAO) studies, anesthesia was induced with 3.5% halothane in a mixture of nitrous oxide and oxygen (Vol. 2:1) and maintained with 0.8% halothane in the mixture. […] Mean arterial blood pressure was measured with the use of an indwelling femoral arterial catheter connected to a pressure transducer and was recorded continuously. […]

Sprague-Dawley rats [2] = assay type: in vivo, rat
Description: as §1, §2
(§3) Each animal was weighed and then anesthesia was induced. For the permanent pial vessel occlusion model, rats were anesthetized with ketamine (100 mg/kg), acepromazine (2 mg/kg), and xylazine (50 mg/kg), supplemented with one third the initial dose as required. For the two permanent middle cerebral artery occlusion (pMCAO) studies, anesthesia was induced with 3.5% halothane in a mixture of nitrous oxide and oxygen (Vol. 2:1) and maintained with 0.8% halothane in the mixture. Rats were endotracheally intubated and mechanically ventilated (60 strokes/min, tidal volume of […]). A rectal temperature probe was inserted. Polyethylene catheters (PE-50) were introduced into the left femoral artery and vein for blood pressure recording, blood sampling, and drug injection. Mean arterial blood pressure was measured with the use of an indwelling femoral arterial catheter connected to a pressure transducer and was recorded continuously. Serial measurements were made of arterial blood gases, pH, and blood glucose.
The left middle cerebral artery was occluded by the intraluminal suture method described by Longa (1989). In brief, the left common carotid artery (CCA) was exposed through a midline neck incision and was dissected free from surrounding nerves and fascia, from its bifurcation to the base of the skull. The occipital artery branches of the external carotid artery (ECA) were then isolated, and these branches were dissected and coagulated. The ECA was dissected further distally and coagulated along with the terminal lingual and maxillary artery branches, which were then divided. The internal carotid artery (ICA) was isolated and carefully separated from the adjacent vagus nerve, and the pterygopalatine artery was ligated close to its origin. The tip of a 4-cm length of 3-0 monofilament nylon suture (Harvard Apparatus) was rounded by burning to achieve a tip diameter of 0.33-0.36 mm and tip length of 0.5-0.6 mm and coated with poly-L-lysine (Belayev et al., 1996). The suture was introduced through the CCA and advanced into the ICA and thence into the circle of Willis (about 18-20 mm from the carotid bifurcation), effectively occluding the middle cerebral artery. The silk suture around the CCA was tightened around the intraluminal nylon suture to secure it and permanently occlude the middle cerebral artery. Sham operated animals underwent the identical surgical procedure, including permanent ligation of the CCA, but without suture insertion to occlude the MCA. The pMCAO procedure was considered to be adequate if the animal's neurobehavioral score (below) exceeded 10 at 2 h after pMCAO. Animals were allowed to recover from anesthesia at room temperature.
At 24 h after pMCAO the animals were deeply anaesthetized employing halothane inhalation and the brains were quickly removed, sliced into 8 standard coronal sections, and incubated for 30 min in 2% triphenyltetrazolium chloride (TTC; Sigma, St. Louis, USA) in saline at 37° C. […] Each section was digitally photographed, and the infarcts were then traced onto templates representing the 8 standardized coronal slices. The use of the templates corrects for any brain edema produced by the infarct, allowing for a more accurate determination of infarct volume. […]

Sprague-Dawley rats [3] = assay: Core temperature after sham procedure with peptide injection; assay type: in vivo, rat; details: single i.v. injection of 3 nMole/g
Description: A day prior to undergoing ischemia, the animals were implanted with intraperitoneal transmitters (E-Mitter; Mini Mitter/Respironics, Oregon, USA) permitting core temperature (CT) and activity monitoring. Monitoring was performed continuously from 20 hours before, to 24 hours after, the pMCAO (Mini-Mitter VitalView telemetric monitoring software; Mini Mitter/Respironics, Oregon, USA). During the animal surgery the animals were away from the telemetric receivers, so CT was measured with a rectal probe and maintained at 36.5° C. to 37.5° C. using a heating lamp or homeothermic blanket. […] Temporalis muscle temperatures were measured with the same thermocouple probe inserted into the muscle through an 18 gauge needle. Cage temperatures were continuously recorded using an external temperature probe and software (Tektronix WaveStar software; Tektronix, Texas, USA) running on a digital oscilloscope and a separate computer. […]
Previous experience has shown that the neuroprotective effects of some anti-ischemic drugs might have been, at least in part, related to drug-induced hypothermia (e.g., MK-801; Corbett, 1990). […] To determine whether PSD-95 inhibition affected core temperature (CT), it was measured in rats (n=6) implanted with telemetric intra-peritoneal temperature monitors. […]

Sprague-Dawley rats [4] = assay: Physiological parameters in the pMCAO studies (body weight, MABP, blood gases, pH); assay type: in vivo, rat; details: for pH: arterial blood; for pH / MABP / pCO2 / pO2: first line, time not given
Description: as §3

Chain of PSD-95 (P78352 whole entry, species assumed): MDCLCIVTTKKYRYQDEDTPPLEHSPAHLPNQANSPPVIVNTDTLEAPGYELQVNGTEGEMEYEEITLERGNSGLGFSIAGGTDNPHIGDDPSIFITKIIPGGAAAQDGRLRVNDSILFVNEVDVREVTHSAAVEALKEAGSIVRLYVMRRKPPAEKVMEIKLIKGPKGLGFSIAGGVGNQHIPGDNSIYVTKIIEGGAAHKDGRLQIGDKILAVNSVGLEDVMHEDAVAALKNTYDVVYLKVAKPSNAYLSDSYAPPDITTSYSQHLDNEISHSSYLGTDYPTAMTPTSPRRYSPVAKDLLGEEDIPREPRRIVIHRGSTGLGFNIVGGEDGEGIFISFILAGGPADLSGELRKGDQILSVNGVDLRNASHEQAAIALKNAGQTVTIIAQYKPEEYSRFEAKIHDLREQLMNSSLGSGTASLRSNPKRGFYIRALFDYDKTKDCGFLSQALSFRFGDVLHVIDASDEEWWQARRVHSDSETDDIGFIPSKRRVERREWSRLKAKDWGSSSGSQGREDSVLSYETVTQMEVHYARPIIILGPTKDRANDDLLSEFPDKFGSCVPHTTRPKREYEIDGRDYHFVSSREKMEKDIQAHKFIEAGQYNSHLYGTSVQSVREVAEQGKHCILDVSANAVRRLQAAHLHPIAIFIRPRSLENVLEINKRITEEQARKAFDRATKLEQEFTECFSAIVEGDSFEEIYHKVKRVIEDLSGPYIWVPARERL

For “KLSSIEADA [NR2B(ADA), reference compound]”, the “binding to PSD-95” value (PSD-95) is listed as “incapable of binding PSD-95”.

For “KLSSIETDV (PL protein motif) [NR2B9c(TDA)]”, the “binding to PSD-95” value (PSD-95) is given as “interacts with the PDZ2 domain of PSD-9S”.

For YGRKKRRQRRRKLSSIESDV [Tat-NR2B9c(SDV)], the “Post-op Deaths” value (Sprague-Dawley rats [1]; 0.3 nMole/g) was 0, the “Post-op Deaths” value (Sprague-Dawley rats [1]; 3.0 nMole/g) was 0 and the “Post-op Deaths” value (Sprague-Dawley rats [2]; pMCAO study #1, 0.3 nMole/g) was 1/1. For the same sequence, the “Post-op Deaths” value (Sprague-Dawley rats [2]; pMCAO study #1, 3.0 nMole/g) was 1, the “Post-op Deaths” value (Sprague-Dawley rats [2]; pMCAO study #2, 0.3 nMole/g) was 1/1 and the “difference in core temperature versus sham (vehicle) animals” value (Sprague-Dawley rats [3]; 20 h before until 24 h after) was “no differences in CT at any time point”. The “increase in core temperature after termination of anesthesia” value (Sprague-Dawley rats [3]; no ischemia, n=6) was roughly 0.5 °C.

For YGRKKRRQRRRKLSSIETDV [Tat-NR2B9c(TDV)], the “Post-op Deaths” value (Sprague-Dawley rats [2]; pMCAO study #1, 0.3 nMole/g) was 0, the “Post-op Deaths” value (Sprague-Dawley rats [2]; pMCAO study #1, 3.0 nMole/g) was 0 and the “Post-op Deaths” value (Sprague-Dawley rats [2]; pMCAO study #2, 0.3 nMole/g) was 2. For the same sequence, the “Post-op Deaths” value (Sprague-Dawley rats [2]; pMCAO study #2, 3.0 nMole/g) was 3, the “MABP 10 min” value (Sprague-Dawley rats [4]; 1st study, 0.3 nmol/g) was 121.44 ± 5.23 mmHg and the “pCO2 10 min” value (Sprague-Dawley rats [4]; 1st study, 0.3 nmol/g) was 39.33 ± 0.73 mmHg. For the same sequence, the “pH 10 min” value (Sprague-Dawley rats [4]; 1st study, 0.3 nmol/g) was 7.44 ± 0.01, the “pO2 10 min” value (Sprague-Dawley rats [4]; 1st study, 0.3 nmol/g) was 124.22 ± 6.34 mmHg and the “MABP 70 min” value (Sprague-Dawley rats [4]; 1st study, 0.3 nmol/g) was 129.44 ± 6.54 mmHg. For the same sequence, the “pCO2 70 min” value (Sprague-Dawley rats [4]; 1st study, 0.3 nmol/g) was 38.67 ± 0.93 mmHg, the “pH 70 min” value (Sprague-Dawley rats [4]; 1st study, 0.3 nmol/g) was 7.41 ± 0.01 and the “pO2 70 min” value (Sprague-Dawley rats [4]; 1st study, 0.3 nmol/g) was 137.67 ± 4.75 mmHg. For the same sequence, the pH (Sprague-Dawley rats [4]; 1st study, 0.3 nmol/g) was 7.42 ± 0.02, the MABP (Sprague-Dawley rats [4]; 1st study, 0.3 nmol/g) was 126.00 ± 5.54 mmHg and the pCO2 (Sprague-Dawley rats [4]; 1st study, 0.3 nmol/g) was 38.11 ± 0.81 mmHg. For the same sequence, the pO2 (Sprague-Dawley rats [4]; 1st study, 0.3 nmol/g) was 131.44 ± 9.11 mmHg, the “MABP 10 min” value (Sprague-Dawley rats [4]; 1st study, 3 nmol/g) was 140.63 ± 7.64 mmHg and the “pCO2 10 min” value (Sprague-Dawley rats [4]; 1st study, 3 nmol/g) was 40.25 ± 0.99 mmHg. For the same sequence, the “pH 10 min” value (Sprague-Dawley rats [4]; 1st study, 3 nmol/g) was 7.43 ± 0.01, the “pO2 10 min” value (Sprague-Dawley rats [4]; 1st study, 3 nmol/g) was 136.00 ± 2.57 mmHg and the “MABP 70 min” value (Sprague-Dawley rats [4]; 1st study, 3 nmol/g) was 102.13 ± 2.39 mmHg. For the same sequence, the “pCO2 70 min” value (Sprague-Dawley rats [4]; 1st study, 3 nmol/g) was 40.38 ± 0.84 mmHg, the “pH 70 min” value (Sprague-Dawley rats [4]; 1st study, 3 nmol/g) was 7.40 ± 0.01 and the “pO2 70 min” value (Sprague-Dawley rats [4]; 1st study, 3 nmol/g) was 132.25 ± 4.65 mmHg. It also gave a pH (Sprague-Dawley rats [4]; 1st study, 3 nmol/g) of 7.44 ± 0.01, an MABP (Sprague-Dawley rats [4]; 1st study, 3 nmol/g) of 123.63 ± 6.27 mmHg and a pCO2 (Sprague-Dawley rats [4]; 1st study, 3 nmol/g) of 39.75 ± 0.70 mmHg. For the same sequence, the pO2 (Sprague-Dawley rats [4]; 1st study, 3 nmol/g) was 130.63 ± 6.24 mmHg, the “MABP 10 min” value (Sprague-Dawley rats [4]; 2nd study, 0.3 nmol/g) was 140.50 ± 4.69 mmHg and the “pCO2 10 min” value (Sprague-Dawley rats [4]; 2nd study, 0.3 nmol/g) was 42.75 ± 0.59 mmHg. For the same sequence, the “pH 10 min” value (Sprague-Dawley rats [4]; 2nd study, 0.3 nmol/g) was 7.38 ± 0.01, the “pO2 10 min” value (Sprague-Dawley rats [4]; 2nd study, 0.3 nmol/g) was 132.00 ± 4.92 mmHg and the “MABP 70 min” value (Sprague-Dawley rats [4]; 2nd study, 0.3 nmol/g) was 129.25 ± 8.09 mmHg. For the same sequence, the “pCO2 70 min” value (Sprague-Dawley rats [4]; 2nd study, 0.3 nmol/g) was 41.75 ± 1.13 mmHg, the “pH 70 min” value (Sprague-Dawley rats [4]; 2nd study, 0.3 nmol/g) was 7.41 ± 0.01 and the “pO2 70 min” value (Sprague-Dawley rats [4]; 2nd study, 0.3 nmol/g) was 121.00 ± 4.39 mmHg. For the same sequence, the pH (Sprague-Dawley rats [4]; 2nd study, 0.3 nmol/g) was 7.38 ± 0.02, the MABP (Sprague-Dawley rats [4]; 2nd study, 0.3 nmol/g) was 119.00 ± 4.11 mmHg and the pCO2 (Sprague-Dawley rats [4]; 2nd study, 0.3 nmol/g) was 39.25 ± 1.06 mmHg. For the same sequence, the pO2 (Sprague-Dawley rats [4]; 2nd study, 0.3 nmol/g) was 133.13 ± 5.15 mmHg, the “pCO2 10 min” value (Sprague-Dawley rats [4]; 2nd study, 3 nmol/g) was 37.50 ± 0.80 mmHg and the “pH 10 min” value (Sprague-Dawley rats [4]; 2nd study, 3 nmol/g) was 7.38 ± 0.02. The “pO2 10 min” value (Sprague-Dawley rats [4]; 2nd study, 3 nmol/g) was 120.13 ± 6.53 mmHg, the “MABP 70 min” value (Sprague-Dawley rats [4]; 2nd study, 3 nmol/g) was 130.25 ± 12.26 mmHg and the “pCO2 70 min” value (Sprague-Dawley rats [4]; 2nd study, 3 nmol/g) was 40.88 ± 1.42 mmHg. For the same sequence, the “pH 70 min” value (Sprague-Dawley rats [4]; 2nd study, 3 nmol/g) was 7.39 ± 0.02, the “pO2 70 min” value (Sprague-Dawley rats [4]; 2nd study, 3 nmol/g) was 124.63 ± 4.44 mmHg and the pH (Sprague-Dawley rats [4]; 2nd study, 3 nmol/g) was 7.41 ± 0.01. It also gave an MABP (Sprague-Dawley rats [4]; 2nd study, 3 nmol/g) of 124.13 ± 6.29 mmHg, a pCO2 (Sprague-Dawley rats [4]; 2nd study, 3 nmol/g) of 38.63 ± 1.05 mmHg and a pO2 (Sprague-Dawley rats [4]; 2nd study, 3 nmol/g) of 141.13 ± 10.44 mmHg.
